Here are results for two compounds from US3988453A, “Novel phenothiazines as neuroleptics” (Roussel-UCLAF, priority 1974, dated 1976).

Series [1] relates to toxicity provoked by amphetamine. The experiment in a line: antagonism to toxicity provoked by amphetamine. The class given is in vivo, male mice. As to conditions: mouse, oral, read-out: ED50 (DE50), amphetaminic toxicity. How it is done: B. antagonism to toxicity provoked by amphetamine
This test was effect on groups of 10 male mice grouped in crystallizers with a 20 cm diameter and a 9 cm height closed with a grilled lid. Each mouse orally received a determined dose of the test product and at different times a single intraperitoneal dose of dexamphetamine sulfate. The injection was effected 1 hour, 24 hours or 2,3,4 or 7 days after the administration of the test compound and the mortality for each group was determined 24 hours after the injection. The ED50, the dose at which the toxicity of dexamphetamine sulphate was reduced by 50%, was determined and the results are reported in Table I.

Series [2] relates to histamine hydrochloride lethality. Nature of the series: antihistaminic activity (protection against lethal histamine dose). The class given is in vivo, guinea pigs. Particulars: guinea pig, oral 10 mg/kg. How it is done: E. antihistaminic Activity
This test was effected on guinea pigs which received orally a single dose of 10 mg/kg of the test product and then a intraveinous injection of 0.8 mg/kg of histamine hydrochloride 1 hour or 24 hours thereafter. This histamine dose is the minimum lethal dose for 100% of the animals within about 3 minutes and after 10 minutes, any surviving animals were considered to be protected. Each product was rated to see if 50% of the animals were alive at this dose and the values of Table IV show at least 50% protected by + and less than 50% protected by 0.

The test system of series [3] is stereotypes provoked by apomorphine. The experiment in a line: antagonism to stereotypes provoked by apomorphine. Format: in vivo, male rats. Particulars: rat, oral, read-out: ED50 (DE50), apomorphine sterotypes. How it is done:
A. antagonism to stereotypes provoked by apomorphine
This test was conducted on groups of 5 male rats in individual cages with the procedure of Janssen et al [Arzn. Forsch., Vol. 15 (1965), p. 104-117 and Vol. 17 (1967), p. 841-854]. Each rat orally received the test compound and then, at variable times, an intraveinous injection of 1.5 mg of apomorphine hydrochloride in the veins of the penis. The times of injection were 1 hour, 24 hours, 2 days, 3 days or 4 days after the test product administration and the rats were studied during 1 minute after 5,10 and 15 minutes after the injection and the stereotype movements of the jaws spheres were evaluated for their degree of intensity on a scale for 0 to 3 /Boissier et al, Therapie, Vol. 25 (1970), p. 939-949/. The ED50 was determined at the maximum of the effect for the time considered that is to say the dose reducing the symptoms by 50% in the treated animals as compared to control animals and the results are reported in Table I.

A short description of a further series: acute toxicity. As to conditions: mouse, in vivo, Swiss mice, mortality at 72 hours. How it is done:
The acute toxicity of the product of Example 2 was determined on groups of 10 mice of the Swiss strain weighing about 20 g receiving increasing doses orally or intraperitoneally of the test product. The mortality was determined 72 hours after the product administration.

The test system of series [4] is vomitting provoked by apomorphine. Nature of the series: antagonism against vomitting provoked by apomorphine. The class given is in vivo, dogs. Particulars: dog. How it is done:
D. antagonism against vomitting provoked by apomorphine
This test was effected on 3 dogs on whom the number of vomits provoked by a single subcutaneous injection of 0.1 mg/kg of apomorphine hydrochloride 8 days before this test. Each dog received subcutaneously an injection of an aqueous suspension of 0.3 mg/kg or 0.8 mg/kg of the product of Example 2 and an injection of 0.1 mg/kg of apomorphine hydrochloride 30 minutes, 7 days, 14 days, 21 days, 28 days, 35 days and 42 days thereafter.

Series [5] concerns stereotypes provoked by amphetamine. Nature of the series: antagonism to stereotypes provoked by amphetamine. As to conditions: for % protection: rat. The class given is in vivo, rats. How it is done: C. antagonism to stereotypes provoked by amphetamine
This test with the product of Example 2 was effected on groups of 5 rats with the rats individually held in cages and after the rats received intraperitoneally or subcutaneously an aqueous suspension of the product at a dose of 10 mg/kg, each rat received intraperitoneally at different times a single injection of 8 mg/kg of dexamphetamine sulfate. The second injections were made 1 hour or 1,3 or 7 days after the first injection and the results were determined by the procedure of Halliwel et al [Brit. J. Pharmacol., Vol. 23 (1964), p. 330-350].

Where [6] appears, read: 48 h, dexamphetamine 2 d after test product.
Setting [7] is: 72 h, dexamphetamine 3 d after test product.
[8] abbreviates: dexamphetamine 1 h after test product.
The mark [9] stands for this setting: dexamphetamine 24 h after test product.
[10] abbreviates: 48 h, apomorphine 2 d after test product.
The mark [11] stands for this setting: 72 h, apomorphine 3 d after test product.
Where [12] appears, read: apomorphine 1 h after test product.
The mark [13] stands for this setting: apomorphine 24 h after test product.

Structures are written as SMILES. Counter-ions that a name gives are not always drawn. Like-named read-outs stand apart in the source and are kept apart here.

Turning to `FC(F)(F)c1ccc2c(c1)N(CCCN1CCC(c3c[nH]c4ccccc34)CC1)c1ccccc1S2` [Example 2, 4-(3'-indolyl)-1-[γ-(2"-trifluoromethyl-10"-phenothiazinyl)-propyl]-piperidine hydrochloride], the ED50 was less than 10 mg/kg in series [1] (setting [6]); 50 mg/kg in series [1] (setting [7]); less than 10 mg/kg in series [1] (setting [8]); less than 10 mg/kg in series [1] (setting [9]); 18 mg/kg in series [3] (setting [10]); 17 mg/kg in series [3] (setting [11]). Besides, the ED50 in series [3] (96 h, apomorphine 4 d after test product) was 33 mg/kg; in series [3] (setting [12]) it was more than 50 mg/kg; in series [3] (setting [13]), less than 10 mg/kg. Besides, the Protection against histamine entry in series [2] (after 1 hour) was “+ (at least 50% protected)”; in series [2] (after 24 hours), 0 (less than 50% protected). For the same compound, the 50% lethal dose (LD50) at 72 h in the series “acute toxicity” (ip, intraperitoneal) is approximately 300 mg/kg; in the series “acute toxicity” (oral) it was more than 1600 mg/kg. Also, in series [4] (subcutaneous), the “neuroleptic activity (Table III, in words)” value is recorded as “important prolonged neuroleptic activity”. Further, the “% of protection” value turned out to be 24% in series [4] (subcutaneous 0.3 mg/kg, after 30 min); 86% in series [4] (subcutaneous 0.3 mg/kg, after 7 d); 57% in series [4] (subcutaneous 0.3 mg/kg, after 14 d); 29% in series [4] (subcutaneous 0.3 mg/kg, after 21 d); 10% in series [4] (subcutaneous 0.3 mg/kg, after 28 d); 0% in series [4] (subcutaneous 0.8 mg/kg, after 30 min). Moreover, the “% of protection” value is on record as 100% in series [4] (subcutaneous 0.8 mg/kg, after 7 d); 95% in series [4] (subcutaneous 0.8 mg/kg, after 14 d); 84% in series [4] (subcutaneous 0.8 mg/kg, after 21 d); 79% in series [4] (subcutaneous 0.8 mg/kg, after 28 d); 42% in series [4] (subcutaneous 0.8 mg/kg, after 35 d); 21% in series [4] (subcutaneous 0.8 mg/kg, after 42 d). Besides, in series [5] (injected intraperitoneally or subcutaneously), the “antagonistic effect against the stereotypes provoked by amphetamine (in words)” value is “important antagonistic effect of prolonged duration”. The “% protection” value worked out at 39% in series [5] (intraperitoneal 10 mg/kg, after 1 hour); 77% in series [5] (intraperitoneal 10 mg/kg, after 1 day); 68% in series [5] (intraperitoneal 10 mg/kg, after 3 days); 61% in series [5] (intraperitoneal 10 mg/kg, after 7 days); 17% in series [5] (subcutaneous 10 mg/kg, after 1 hour); 84% in series [5] (subcutaneous 10 mg/kg, after 1 day). The “% protection” value in series [5] (subcutaneous 10 mg/kg, after 3 days) is 60%; in series [5] (subcutaneous 10 mg/kg, after 7 days), 14%.

Regarding `COc1ccc2c(c1)N(CC(C)CN1CCC(c3c[nH]c4ccccc34)CC1)c1ccccc1S2` (stereo not drawn) [Example 8, 4-(3'-indolyl)-1-[γ-(2"-methoxy-10"-phenothiazinyl)-β-methylpropyl]-piperidine hydrochloride], the ED50 in series [1] (setting [6]) is less than 10 mg/kg; in series [1] (setting [7]), 18 mg/kg; in series [1] (setting [8]), less than 10 mg/kg; in series [1] (setting [9]), less than 10 mg/kg; in series [3] (setting [10]), 12 mg/kg; in series [3] (setting [11]) it was 30 mg/kg. Further, the ED50 in series [3] (setting [12]) was more than 50 mg/kg; in series [3] (setting [13]) it was less than 10 mg/kg. In addition, the Protection against histamine in series [2] (after 1 hour) was 0 (less than 50% protected); in series [2] (after 24 hours), “+ (at least 50% protected)”.
